Experimental data as given in patent US7109193B2, “Tricyclic diazepines tocolytic oxytocin receptor antagonists” (Wyeth, priority 2001, dated 2006).

Experiments:
[1] = target: T1, human vasopressin V2 receptor subtype (Homo sapiens, UniProt P30518); assay: Vasopressin binding in Chinese Hamster Ovary cell membranes expressing human vasopressin V2 subtype receptors; settings: CHO cell membranes, [3H]arginine vasopressin; for IC50: values in parentheses; for inhibition at 0.1 µM: 100 nM, values without parentheses
T1 construct: host or cells: CHO cells (pZeoSV vector)
T1 sequence (P30518 whole entry): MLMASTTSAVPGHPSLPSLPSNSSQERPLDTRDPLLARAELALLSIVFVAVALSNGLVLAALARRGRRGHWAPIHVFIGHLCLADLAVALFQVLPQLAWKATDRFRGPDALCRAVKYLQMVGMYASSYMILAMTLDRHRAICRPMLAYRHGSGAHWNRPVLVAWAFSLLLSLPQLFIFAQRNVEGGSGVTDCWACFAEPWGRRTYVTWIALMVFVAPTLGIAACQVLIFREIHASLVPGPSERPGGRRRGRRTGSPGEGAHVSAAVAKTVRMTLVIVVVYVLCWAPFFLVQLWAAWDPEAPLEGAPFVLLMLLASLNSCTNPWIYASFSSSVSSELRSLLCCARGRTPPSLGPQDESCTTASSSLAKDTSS
Outline: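 Radioligand displacement on membranes from CHO cells stably expressing human V2 receptor, 25 to 50 μg protein/well, in 50 mM Tris-HCl pH 7.4 with MgCl2, BSA and protease inhibitors. [^3H]arginine vasopressin (8 nM working solution) incubated 60 min at room temperature; bound label measured by filtration and scintillation counting.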

SMILES	IC50 [1] [nM]	melting point [°C]	inhibition at 0.1 µM [1] [%]
COc1cc(C(=O)N2Cc3cccn3Cc3ccccc32)ccc1-n1c(C)ccc1C [Example 27, [4-(2,5-Dimethyl-1-H-pyrrol-1-yl)-3-methoxy-phenyl][10,11-dihydro-5H-pyrrolo[2,1-c][1,4]benzodiazepin-10-yl]methanone]	149	141 to 144	
COc1cc(C(=O)N2Cc3ccc(C(=O)N(C)CCN(C)C)n3Cc3ccccc32)ccc1-c1ccccc1C(F)(F)F [Example 22, N-Methyl-[N-(2-dimethylamino)ethyl]-10-{[2-methoxy-2′-trifluoromethyl-[1,1′-biphenyl]-4-yl]carbonyl}-10,11-dihydro-5H-pyrrolo[2,1-c][1,4]benzodiazepine-3-carboxamide]	1430	187 to 190	
Cc1ccc(-c2ccc(C(=O)N3Cc4cccn4Cc4ccccc43)cc2)c2ccccc12 [Example 25, [4-(4-Methyl-naphthalen-1-yl)phenyl][10,11-dihydro-5H-pyrrolo[2,1-c][1,4]benzodiazepin-10-yl]methanone]	11.3	160 to 162	
COc1cc(C(=O)N2Cc3ccc(C(=O)N4CCC[C@H]4CN4CCCC4)n3Cc3ccccc32)ccc1-c1ccccc1C(F)(F)F [Example 20, {[10-(2-Methoxy)-2′-trifluoromethyl-[1,1′-biphenyl]-4-yl]carbonyl}-[(2S)-[(2-pyrrolidin-1-yl)methyl]pyrrolidin-1-yl]-10,11-dihydro-5H-pyrrolo[2,1-c][1,4]benzodiazepin-3-yl-methanone]	4360	125 to 128	
O=C(c1ccc(-c2cccc3ccccc23)nc1)N1Cc2cccn2Cc2ccccc21 [Example 28, [6-(Naphthalen-1-yl)-pyridin-3-yl]-[10,11-dihydro-5H-pyrrolo[2,1-c][1,4]benzodiazepin-10-yl]methanone]	58.8	155 to 158	
O=C(c1ccc(-c2cccc3ccccc23)cc1Cl)N1Cc2cccn2Cc2ccccc21 [Example 24, [2-Chloro-4-(naphthalen-1-yl)phenyl][10,11-dihydro-5H-pyrrolo[2,1-c][1,4]benzodiazepin-10-yl]methanone]	4.7	115 to 117.5	
COc1cccc(-c2ccc(C(=O)N3Cc4ccc(C(=O)N5CC[C@@H](N(C)C)C5)n4Cc4ccccc43)cc2C)c1 [Example 278, [(3R)-3-(Dimethylamino)pyrrolidinyl]{10-[(3′-methoxy-2-methyl[1,1′-biphenyl]-4-yl)carbonyl]-10,11-dihydro-5H-pyrrolo[2,1-c][1,4]benzodiazepin-3-yl}methanone]	1680		
COc1cc(-c2ccccc2C)ccc1C(=O)N1Cc2ccc(C(=O)N(C)CCCN(C)C)n2Cc2ccccc21 [Example 11, N-Methyl-N-[3-(dimethylamino)propyl]-10-[(3-methoxy-2′-methyl[1,1′-biphenyl]-4-yl)carbonyl]-10,11-dihydro-5H-pyrrolo[2,1-c][1,4]benzodiazepine-3-carboxamide]	1350		
COc1cc(-c2ccccc2Cl)c(Cl)cc1C(=O)N1Cc2ccc(C(=O)N(C)C3CCN(C)CC3)n2Cc2ccccc21 [Example 43, 10-[(2′-Chloro-6-chloro-3-methoxy-[1,1′-biphenyl]-4-yl)carbonyl]-N-methyl-N-(1-methylpiperidin-4-yl)-10,11-dihydro-5H-pyrrolo[2,1-c][1,4]benzodiazepine-3-carboxamide]	409		
COc1ccccc1-c1ccc(C(=O)N2Cc3ccc(C(=O)N4CCN(CCCN(C)C)CC4)n3Cc3ccccc32)cc1 [Example 246, {4-[3-(Dimethylamino)propyl]-1-piperazinyl}{10-[(2′-methoxy[1,1′-biphenyl]-4-yl)carbonyl]-10,11-dihydro-5H-pyrrolo[2,1-c][1,4]benzodiazepin-3-yl}methanone]	508		
Cc1ccccc1-c1ccc(C(=O)N2Cc3ccc(C(=O)N(C)CCN(C)C)n3Cc3ccccc32)cc1 [Example 91, N-[2-(Dimethylamino)ethyl]-N-methyl-10-[(2′-methyl[1,1′-biphenyl]-4-yl)carbonyl]-10,11-dihydro-5H-pyrrolo[2,1-c][1,4]benzodiazepine-3-carboxamide]			17
COc1ccccc1-c1ccc(C(=O)N2Cc3ccc(C(=O)N(C)CCN(C)C)n3Cc3ccccc32)cc1 [Example 90, N-[2-(Dimethylamino)ethyl]-10-[(2′-methoxy[1,1′-biphenyl]-4-yl)carbonyl]-N-methyl-10,11-dihydro-5H-pyrrolo[2,1-c][1,4]benzodiazepine-3-carboxamide]			19
COc1cc(C(=O)N2Cc3ccc(C(=O)N(C)CCN(C)C)n3Cc3ccccc32)ccc1-c1cccc2ccccc12 [Example 93, N-[2-(Dimethylamino)ethyl]-10-[3-methoxy-4-(1-naphthyl)benzoyl]-N-methyl-10,11-dihydro-5H-pyrrolo[2,1-c][1,4]benzodiazepine-3-carboxamide]			36
COc1cc(C(=O)N2Cc3ccc(C(=O)N(C)CCCN(C)C)n3Cc3ccccc32)ccc1-c1ccccc1C(F)(F)F [Example 21, N-Methyl-[N-(3-dimethylamino)propyl]-10-{[2-methoxy-2′-trifluoromethyl-[1,1′-biphenyl]-4-yl]carbonyl}-10,11-dihydro-5H-pyrrolo[2,1-c][1,4]benzodiazepin-3-carboxamide]	1160	140 to 142	
COc1ccccc1-c1ccc(C(=O)N2Cc3ccc(C(=O)N(C)CCCN(C)C)n3Cc3ccccc32)cc1 [Example 103, N-[3-(Dimethylamino)propyl]-10-[(2′-methoxy[1,1′-biphenyl]-4-yl)carbonyl]-N-methyl-10,11-dihydro-5H-pyrrolo[2,1-c][1,4]benzodiazepine-3-carboxamide]			11
COc1cc(-c2ccccc2C)c(Cl)cc1C(=O)N1Cc2ccc(C(=O)N3CCN(CCN(C)C)CC3)n2Cc2ccccc21 [Example 197, {10-[(6-Chloro-3-methoxy-2′-methyl[1,1′-biphenyl]-4-yl)carbonyl]-10,11-dihydro-5H-pyrrolo[2,1-c][1,4]benzodiazepin-3-yl}{4-[2-(dimethylamino)ethyl]-1-piperazinyl}methanone]	497		
Cc1cc(C(=O)N2Cc3ccc(C(=O)N4CCN(CCN(C)C)CC4)n3Cc3ccccc32)ccc1-c1ccccc1C(F)(F)F [Example 196, {4-[2-(Dimethylamino)ethyl]-1-piperazinyl}(10-{[2-methyl-2′-(trifluoromethyl)[1,1′-biphenyl]-4-yl]carbonyl}-10,11-dihydro-5H-pyrrolo[2,1-c][1,4]benzodiazepin-3-yl)methanone]	855		
COc1cccc(-c2ccc(C(=O)N3Cc4ccc(C(=O)N(C)CCN(C)C)n4Cc4ccccc43)cc2C)c1 [Example 89, N-[2-(Dimethylamino)ethyl]-10-[(3′-methoxy-2-methyl[1,1′-biphenyl]-4-yl)carbonyl]-N-methyl-10,11-dihydro-5H-pyrrolo[2,1-c][1,4]benzodiazepine-3-carboxamide]			13
COc1cc(-c2ccccc2C)c(Cl)cc1C(=O)N1Cc2ccc(C(=O)N3CCC(N4CCCCC4)CC3)n2Cc2ccccc21 [Example 110, {10-[(6-Chloro-3-methoxy-2′-methyl[1,1′-biphenyl]-4-yl)carbonyl]-10,11-dihydro-5H-pyrrolo[2,1-c][1,4]benzodiazepin-3-yl}[4-(1-piperidinyl)-1-piperidinyl]methanone]	788		
COc1cccc(-c2ccc(C(=O)N3Cc4ccc(C(=O)N5CCC[C@H]5CN5CCCC5)n4Cc4ccccc43)cc2C)c1 [Example 263, {10-[(3′-Methoxy-2-methyl[1,1′-biphenyl]-4-yl)carbonyl]-10,11-dihydro-5H-pyrrolo[2,1-c][1,4]benzodiazepin-3-yl}[(2S)-2-(1-pyrrolidinylmethyl)pyrrolidinyl]methanone]	4120		
COc1cc(-c2ccccc2F)c(Cl)cc1C(=O)N1Cc2cccn2Cc2ccccc21 [Example 18B, 10-{[6-Chloro-3-methoxy-2′-fluoro-[1,1′-biphenyl]-4-yl]carbonyl}-10,11-dihydro-5H-pyrrolo[2,1-c][1,4]benzodiazepine]	189		
Cc1cc(C(=O)N2Cc3ccc(C(=O)N4CCN(C)CC4)n3Cc3ccccc32)ccc1-c1ccccc1C(F)(F)F [Example 2, (4-Methyl-piperazin-1-yl)-[10-(2-methyl-2′-trifluoromethyl-[1,1′-biphenyl]-4-yl)-carbonyl]-10,11-dihydro-5H-pyrrolo[2,1-c][1,4]benzodiazepin-3-yl-methanone]	1760		
COc1cc(-c2ccccc2C(F)(F)F)c(OC)cc1C(=O)N1Cc2cccn2Cc2ccccc21 [Example 32, 10-{[3,6-Dimethoxy-2′-trifluoromethyl-[1,1′-biphenyl]-4-yl]carbonyl}-10,11-dihydro-5H-pyrrolo[2,1-c][1,4]benzodiazepine]	605		
C=CCN1CCN(C(=O)c2ccc3n2Cc2ccccc2N(C(=O)c2ccc(-c4ccccc4C)c(C)c2)C3)CC1 [Example 220, (4-Allyl-1-piperazinyl){10-[(2,2′-dimethyl[1,1′-biphenyl]-4-yl)carbonyl]-10,11-dihydro-5H -pyrrolo[2,1-c][1,4]benzodiazepin-3-yl}methanone]	1820		
COc1ccccc1-c1ccc(C(=O)N2Cc3ccc(C(=O)N4CCN(CCCN(C)C)CC4)n3Cc3ccccc32)cc1C [Example 245, {4-[3-(Dimethylamino)propyl]-1-piperazinyl}{10-[(2′-methoxy-2-methyl[1,1′-biphenyl]-4-yl)carbonyl]-10,11-dihydro-5H-pyrrolo[2,1-c][1,4]benzodiazepin-3-yl}methanone]	423		
COc1ccccc1-c1ccc(C(=O)N2Cc3ccc(C(=O)NCCCN(C)C)n3Cc3ccccc32)cc1OC [Example 81, 10-[(2,2′-Dimethoxy[1,1′-biphenyl]-4-yl)carbonyl]-N-[3-(dimethylamino)propyl]-10,11-dihydro-5H-pyrrolo[2,1-c][1,4]benzodiazepine-3-carboxamide]			21
